Results on 5 compounds are retold here after patent US20030157715A1, “Modulation of chromosome function by chromatin remodeling agents” (priority 2000, published 2003).

Experiment [1] concerns Drosophila histone SAR. The experiment in a line: DNase I footprinting on SAR probe. The following applies: for Ratio: Kdapp W9 / Kdapp SAR (SAR specificity factor); for Kd: apparent binding affinity, DNase I footprinting, SAR probe, read-out: Kdapp SAR. It is filed as binding. As to the method: (§1) Synthetic oligonucleotides […] and […] were hybridized to obtain the W9 probe, oligomerized by ligation and digested with BamHI and BglII to obtain different tandem repeats. The following oligonucleotides were prepared identically: GAF31 is composed of the oligonucleotides […] and […] and, BrownI of oligonucleotides […] and […]. Fragments were purified on low-melt agarose gels and then cloned into a modified pSP64 vector, cut by BamHI and BglII. End-labeling was carried out following digestion with HindIII and a fill-in reaction with Klenow DNA polymerase. The labeled plasmid was cut with PvuII and the target fragments purified from low-melting agarose gels. The 657 bp EcoR1/Hinf1 fragment of the Drosophila histone SAR was cloned into the SmaI site of the modified pSP64 plasmid. This SAR probe was end-labeled following-digestion with EcoR1, then cut with ClaI and the resulting 347 bp fragment purified from low-melting agarose gels.
(§2) All reactions were performed in a total volume of 40 μl. A polyamide stock solution or buffer (for reference lanes) was added to an assay buffer containing 20 kcpm radiolabeled DNA, affording final concentrations of 10 mM Tris-HCl (pH 7.4), 10 mM KCl, 10 MM MgCl, 5 mM CaCl2, 0.5 mM EDTA, 0.5 mM EGTA, 1 mM DTT and 0.1% digitonine. The solutions were allowed to equilibrate for at least 2 h at room temperature. Footprinting reactions were initiated by the addition of 2 μl of a DNase stock solution (containing −100 μg DNase I in buffer) and allowed to proceed for 2 min at room temperature. The reactions were stopped by addition of 10 μl of a solution containing 1.25 M NaCl, 100 mM EDTA. Next, 5 μl of a 1% SDS solution was added, followed by 2 μl of a solution containing 1 μg poly(dA-dT), 1 μg salmon sperm DNA and 10 μg glycogen and the DNA was ethanol precipitated (20 min at −20 C.). The reactions were resuspended in 4 μl of 80% formamide loading buffer, denatured 10 min at 85 C., cooled on ice and electrophoresed on 8% polyacrylamide denaturing gels (5% cross-link, 8 M urea) at 30 W for 1 h. The gels were dried and exposed o/n at −70 C.

In experiment [2] the target is W9 probe (tandem repeats of an oligonucleotide with a 9 bp AT-tract). The experiment in a line: DNase I footprinting on probe W9. The note with it: apparent binding affinity, DNase I footprinting, probe W9; read-out: Kdapp W9. It is filed as binding.
Description: DNase I cleavage pattern in the presence of P9 and P7. Ligand concentrations are indicated at the top of each lane. The position of each of the AT-tracts is indicated by square brackets. […] This probe is composed of head-to-tail tandem repeats of an oligonucleotide with a 9 bp AT-tract.
as §1, §2

Experiment [3] has as its system satellite III chromatin in Kc nuclei. The following applies: previously reported (Kas and Laemmli, 1992); cited from earlier work.
Experiment [4] has as its system DNA satellites in Kc nuclei and polytene chromosomes. The experiment in a line: Staining of Kc nuclei and polytene chromosomes with fluorescent polyamides. Set-up: species or system Drosophila. The following applies: isolated Kc nuclei and polytene chromosomes. As to the method:
Kc Drosophila nuclei were isolated (Mirkovitch et al., 1984), diluted into XBE (10 mM Hepes, pH 7.7, 2 mM MgCl2, 0.1 mM CaCl2, 100 mM KCl, 5 mM EGTA and 50 mM sucrose), fixed with 0.8% fresh paraformaldehyde for 15 minutes and spun onto a round coverslip (10 mm) as described previously (Boy de la Tour and Laemmli, 1988). For washing and staining, coverslips were floated on 60 μl drops of XBE deposited on […]. After centrifugation coverslips were washed twice (1 minute), stained for 60 minutes, washed four times (1 minute) and then mounted in PPDI (5 mM Hepes pH 7.8, 100 mM NaCl, 20 mM KCl, 1 mM EGTA, 10 mM Mg SO4, 2 mM CaCl2, 78% glycerol, 1 mgr/ml paraphenylene diamine). FIG. (4) panel A was stained with 0.5 μM […] and 15 μM ethidium bromide (EB). Kc nuclei and polytene chromosomes were stained with fluorescent polyamides as described elsewhere (Janssen et al., 2000). For immunofluorescence, polytene glands were carefully dissected from bw^D or Canton S. flies in 1× PBS as described (Ashburner, 1989) Whole glands in sol P (1×PBS supplemented with 1 mM MgCl2 and 0.1% digitonin) were then incubated for 60 minutes with various concentrations of either P31, P9 or no compound at room temperature. P31 (not P9) induced redistribution of GAF during this incubation step. […] Images were recorded with a wide field, deconvolution-type imaging system from DeltaVision.

On to `CN(C)CCCNC(=O)CCNC(=O)c1cc(NC(=O)c2cc(NC(=O)c3cc(NC(=O)c4cc(NC(=O)c5cccn5C)cn4C)cn3C)cn2C)cn1C` [Compound P10, (Py)5βDp], for which, in experiment [1], the Ratio is 2.3 and the Kd amounted to 35 nM. For the same compound, the Kd in experiment [2] came to 80 nM.

As for `CN(C)CCCNC(=O)CCNC(=O)c1cc(NC(=O)c2cc(NC(=O)c3cc(NC(=O)CCNC(=O)c4cc(NC(=O)c5cc(NC(=O)c6cc(NC(=O)CCNC(=O)c7cc(NC(=O)c8cc(NC(=O)c9cccn9C)cn8C)cn7C)cn6C)cn5C)cn4C)cn3C)cn2C)cn1C` [Compound P13, ((Py)3β)3Dp], in experiment [1], the Ratio stood at 0.8 and the Kd is 1.25 nM. The Kd in experiment [2] is 1 nM.

As for `Cn1cc(NC(=O)c2cc(NC(=O)c3cc(NC=O)cn3C)cn2C)cc1C(=O)NCCC(=N)N` [distamycin], the “chromatin opening at satellite III by distamycin” value in experiment [3] is on record as “causes opening of the chromatin fiber”.

Consider (Py)3β(Py)3βD* [Compound P9F], for which, in experiment [1], the Ratio stood at 4 and the Kd was 1 nM. Besides, the “increase of SAR specificity upon fluorescein tagging” value in experiment [1] (tagged versus untagged compound) is reported as “about 4 fold”. For the same compound, in experiment [2], the Kd came out at 4 nM. The “main nuclear targets by epifluorescence staining” value in experiment [4] is “targets primarily satellite I and III”.

Consider F*γ(Py)5βDp [Compound P10F], for which, in experiment [1], the Ratio is 2.5 and the Kd amounted to 1200 nM. Moreover, the Kd in experiment [2] was determined as 3000 nM.
